Results reported in US20250270230A1, “NOVEL SYNTHETIC STEPS FOR THE MANUFACTURING METHOD OF THE PDE4B-INHIBITOR 1-({(5R)-2-[4-(5-CHLOROPYRIMIDINE-2-YL)PIPERIDINE-1-YL]-5-OXIDO-6,7-DIHYDROTHIENO[3,2-D]PYRIMIDINE-4-YL}AMINO)CYCLOBUTYL]METHANOL” (Boehringer Ingelheim International GmbH, priority 2023, published 2025).
Where two headings read alike, the source gives them in different places. Each block holds one molecule with its values, some of them ahead of it.

What was measured:
[1] = Form conversion from crystalline Form A to Form B followed by Raman spectroscopy; type: physicochemical; details: 40° C., n-propanol/water, seeding with Form B
Method: Form A was charged to the reactor as the starting material. 7.0 VP of n-propanol and […] were used along with Raman probe to confirm the rate of conversion by holding the conversion at different temperature. The rate of form conversion from crystalline Form A to crystalline Form B of the PDE4B-inhibitor of formula XX was studied at 20, 40 and 70° C. with 10% seeding with crystalline Form B seeding crystals.
At 20 or 70° C., the conversion rate was similar, but definitely slower than at 40° C.
The temperature of 40° C. allows a full conversion of crystalline Form A into crystalline Form B in less than 4 hours, preferably even in 2 hours (see also FIGS. 1a and 1b). […] However, the crystallization procedure to yield the Compound of formula XX as crystalline Form B (on production scale) as described in Chapter 3.10 reduces the crystallization time down to not more than 9 hours from the timepoint of seeding, which means a significant improvement in the cycling time.

[2] = Storage stability of intermediates at room temperature; type: physicochemical
Description: The alternative synthesis method to manufacture Intermediate VIII has several advantages over the method of manufacturing Intermediate VIII (or Intermediate G as it is called in U.S. Pat. No. […]): • The new Suzuki-reaction process offers much better control of impurities by avoiding the formation of N-methylation at the piperidine ring. The methylation of the piperidine-ring occurs in the original process according to U.S. Pat. No. 8,609,670 during the use of methanol and 4M hydrochloric acid in 1,4-dioxane and takes place via the in situ formed cancerogenic compound methyl chloride. […] 0.05 m % (0.02 mol %) Pd(amphos)2Cl2 is sufficient for the Suzuki cross-coupling reaction to complete the conversion in less than 3 hours. In literature, significant higher amounts of Pd-catalyst have been described so far [a) K.-T.-Wong et al, Org. […] Second, the reproducibility of yield and quality is very high and consistent as observed on production scale over several batches. […]

[3] = Stress test-experiments of the hydrolysis reactions of Intermediate XVII; type: physicochemical
Method: (§1) It is shown, that hydrolysis toward IMP-A occurs at 60° C. and 90° C. (examples 1 and 2). The hydrolysis reaction itself is promoted by titanium residues, as example 2 with 671 mg/kg titanium leads to higher impurity levels of IMP-A compared to example 1, which has a lower titanium content (<251 mg/kg).
as §1, with “mg/kg titanium content leads to” for “mg/kg titanium leads to”

[4] = Competitive slurries containing Form A, Form B and Form C (thermodynamic stability); type: physicochemical
Method: Few other crystalline forms were observed during the initial and extended solid form screening by using various techniques. […] Its thermodynamic stability has been confirmed by competitive slurries containing Form A, Form B and Form C. Form B was the predominant form in all solvents and temperature conditions, except for the solvent water (with a water activity of 1) at temperatures between 5 and 25° C. which yielded Form C.

[5] = Long-term stability of water-free material regarding hydrolysis side-reactions; type: physicochemical; details: water-free form (recrystallization variant A, 1,4-dioxane)
Description: For example with the additional recrystallization step according to variant A (recrystallization from 1,4-dioxane) Intermediate XVIII is obtained as a water-free form (examples 1 and 2). The water-free material is long-term stable (>12 months) regarding hydrolysis side-reactions, which can occur at two positions of Intermediate XVII by forming IMP-A and IMP-B (see Scheme 5).
In comparison to the process as described in U.S. Pat. No. 8,609,670B, the additional recrystallization step after the enantioselective oxidation step according to variant A yielding Intermediate XVIII also improves the quality of the sulfoxide XVII critically. Hereby, Intermediate XVIII is obtained as a water-free form. The water-free material is long-term stable (>12 months) regarding hydrolysis side-reactions, which can occur at two positions of Intermediate XVII by forming the impurities IMP-A and IMP-B (see Scheme 14).

[6] = test system: patients with idiopathic pulmonary fibrosis (IPF); details: Phase II, cited from earlier work
[7] = molecular target: PDE4B subunit (Homo sapiens, UniProt Q07343); details: cited from earlier work
[8] = batch Example 1, Ti content <251 mg/kg
[9] = batch Example 2, Ti content 671 mg/kg

Sequence of PDE4B subunit (Q07343 whole entry): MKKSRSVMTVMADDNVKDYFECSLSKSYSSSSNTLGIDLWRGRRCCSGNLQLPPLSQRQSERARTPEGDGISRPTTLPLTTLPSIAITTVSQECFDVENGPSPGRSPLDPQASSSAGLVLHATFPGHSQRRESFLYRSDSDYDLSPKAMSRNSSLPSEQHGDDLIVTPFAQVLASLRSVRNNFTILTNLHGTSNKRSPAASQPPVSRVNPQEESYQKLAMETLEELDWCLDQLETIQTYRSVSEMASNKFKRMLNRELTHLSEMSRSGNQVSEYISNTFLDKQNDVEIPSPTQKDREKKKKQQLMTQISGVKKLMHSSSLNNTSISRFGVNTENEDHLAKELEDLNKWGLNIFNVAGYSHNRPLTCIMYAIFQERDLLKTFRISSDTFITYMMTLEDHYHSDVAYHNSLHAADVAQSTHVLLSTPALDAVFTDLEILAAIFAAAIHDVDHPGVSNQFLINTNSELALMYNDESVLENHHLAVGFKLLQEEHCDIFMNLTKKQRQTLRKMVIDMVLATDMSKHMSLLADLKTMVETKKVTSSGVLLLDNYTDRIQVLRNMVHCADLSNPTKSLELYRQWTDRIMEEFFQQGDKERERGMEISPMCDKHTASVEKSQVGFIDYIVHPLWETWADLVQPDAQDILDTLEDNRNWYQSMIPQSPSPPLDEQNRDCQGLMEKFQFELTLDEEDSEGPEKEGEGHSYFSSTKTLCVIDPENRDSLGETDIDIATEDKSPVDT

time for full conversion of crystalline Form A into crystalline Form B [1]: less than 4 hours
Compound: [O-][S@+]1CCc2nc(N3CCC(c4ncc(Cl)cn4)CC3)nc(NC3(CO)CCC3)c21 [Form A]

storage stability [2]: stable for storage at room temperature
Compound: CC(C)(C)OC(=O)N1CC=C(c2ncc(Cl)cn2)CC1 [Intermediate VI]

IMP-A content in XVII after 1 week at 60° C. [3, 8]: 0.13%
IMP-A content in XVII after 1 week at 90° C. [3, 8]: 0.16%
IMP-A content in XVII at t = 0 [3, 8]: 0.10%
IMP-B content in XVII after 1 week at 60° C. [3, 8]: 0.05%
IMP-B content in XVII after 1 week at 90° C. [3, 8]: 0.34%
IMP-B content in XVII at t = 0 [3, 8]: <0.05%
IMP-A content in XVII after 1 week at 60° C. [3, 9]: 0.19%
IMP-A content in XVII after 1 week at 90° C. [3, 9]: 0.32%
IMP-A content in XVII at t = 0 [3, 9]: <0.05%
IMP-B content in XVII after 1 week at 60° C. [3, 9]: <0.05%
IMP-B content in XVII after 1 week at 90° C. [3, 9]: 0.54%
IMP-B content in XVII at t = 0 [3, 9]: <0.05%
Compound: [O-][S@+]1CCc2nc(Cl)nc(NC3(CO)CCC3)c21 [Intermediate XVII, 1-[[(5R)-2-chloro-6,7-dihydro-5-oxidothieno[3,2-d]pyrimidin-4-yl]amino]-cyclobutanemethanol]

thermodynamic stability of crystalline form [4]: thermodynamically most stable form
Compound: [O-][S@+]1CCc2nc(N3CCC(c4ncc(Cl)cn4)CC3)nc(NC3(CO)CCC3)c21 [Form B]

long-term stability regarding hydrolysis side-reactions [5]: > 12 months
Compound: [O-][S@+]1CCc2nc(Cl)nc(NC3(CO)CCC3)c21 [Intermediate XVIII]

Compound: [O-][S@+]1CCc2nc(N3CCC(c4ncc(Cl)cn4)CC3)nc(NC3(CO)CCC3)c21 [Compound XX, 1-({(5R)-2-[4-(5-CHLOROPYRIMIDINE-2-YL)PIPERIDINE-1-YL]-5-OXIDO-6,7-DIHYDROTHIENO[3,2-D]PYRIMIDINE-4-YL}AMINO)CYCLOBUTYL]METHANOL]
lung function decline ([6]; IPF patients already taking approved antifibrotics (Nintedanib or Pirfenidon) as background): reduction in lung function decline could be observed
lung function decline ([6]; IPF patients not on approved antifibrotics as background treatment): reduction in lung function decline could be observed
rate of lung function decline ([6]; IPF patients, within 12 weeks of treatment): reduction in the rate of lung function decline
PDE4 subunit preference [7]: preferentially inhibits the PDE4B subunit
